Results on 13 compounds are retold here after patent publication US20230365571A1, “COMPOUNDS AND COMPOSITIONS AS Sppl2a INHIBITORS” (Novartis AG, priority 2020, published 2023).

What all share (assay type): cell-based
Assay [1] concerns the target T1, human SPPL2a (Homo sapiens, UniProt Q8TCT8).
T1 sequence (Q8TCT8 26-520): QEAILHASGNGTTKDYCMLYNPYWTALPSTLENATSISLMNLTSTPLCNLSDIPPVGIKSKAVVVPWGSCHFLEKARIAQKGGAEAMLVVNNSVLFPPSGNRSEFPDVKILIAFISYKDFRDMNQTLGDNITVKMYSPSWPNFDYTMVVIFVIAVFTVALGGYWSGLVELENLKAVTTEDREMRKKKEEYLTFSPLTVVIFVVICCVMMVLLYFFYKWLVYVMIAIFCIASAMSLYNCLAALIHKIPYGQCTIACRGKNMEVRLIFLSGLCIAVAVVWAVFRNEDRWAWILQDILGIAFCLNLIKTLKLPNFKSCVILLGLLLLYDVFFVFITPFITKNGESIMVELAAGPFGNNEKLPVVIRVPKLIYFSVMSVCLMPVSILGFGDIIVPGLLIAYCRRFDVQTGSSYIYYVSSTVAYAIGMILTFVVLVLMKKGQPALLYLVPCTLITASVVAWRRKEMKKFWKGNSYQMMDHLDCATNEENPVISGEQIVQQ
As to the kind of experiment: Sppl2a TL (translocation) imaging assay in U-2 OS cells. Conditions: U-2 OS cells expressing human SPPL2a and EGFP-TNFα(aa1-76) NTF substrate; 24 h. Also on record: expressed in transfected cells. In outline:
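U-2 OS cells stably expressing human SPPL2a plus doxycycline-induced EGFP-TNFα(aa1-76) NTF, treated 24 h at 37 °C with inhibitor (100 μM–1 nM, 11 points, 0.9% DMSO, 5 μg/mL doxycycline). Imaging of nuclear-minus-cytoplasmic EGFP intensity; % inhibition versus 0.5 μM LY-411,575 and DMSO, IC50 by nonlinear regression; CC50 from cell count.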

The target in assay [2] is T1, human SPPL2a. Nature of the assay: Sppl2a RGA (reporter gene assay) in HEK293 cells. Also on record: expressed in transfected cells; host or cells: HEK293 (transient). The settings on record: NT-TNF-VP16-Gal4 substrate, Gal4-luciferase reporter, 24 h. The method, boiled down:
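HEK293 cells transiently co-transfected with human SPPL2a, NT-TNF-VP16-Gal4 substrate and Gal4-luciferase reporter, compound added within 5 h. After 24 h at 37 °C, luciferase luminescence measured; IC50 from concentration versus normalized luminescence.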
(A reporter such as luciferase makes a cellular process visible.)

The target of a further assay is T2, Sppl2a CD74 (Mus musculus, UniProt Q9JJF9).
T2 construct: Mouse whole blood Balb/c mice (sodium citrate) was ordered by Bioreclamation LLC; tissue Bioreclamation LLC
T2 sequence (Q9JJF9 26-523): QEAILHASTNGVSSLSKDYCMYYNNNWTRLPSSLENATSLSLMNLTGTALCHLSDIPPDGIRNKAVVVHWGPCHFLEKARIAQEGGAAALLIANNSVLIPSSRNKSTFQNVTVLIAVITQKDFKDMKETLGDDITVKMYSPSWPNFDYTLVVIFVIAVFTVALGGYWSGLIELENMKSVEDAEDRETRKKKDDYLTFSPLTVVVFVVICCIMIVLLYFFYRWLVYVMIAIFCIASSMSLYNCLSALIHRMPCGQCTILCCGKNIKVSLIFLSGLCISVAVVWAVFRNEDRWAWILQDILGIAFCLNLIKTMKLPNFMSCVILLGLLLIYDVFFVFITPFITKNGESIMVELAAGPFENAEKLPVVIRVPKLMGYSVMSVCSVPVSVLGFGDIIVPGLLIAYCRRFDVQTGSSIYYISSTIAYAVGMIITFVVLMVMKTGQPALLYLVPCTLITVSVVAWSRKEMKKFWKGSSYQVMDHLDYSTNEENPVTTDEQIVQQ
Nature of the assay: CD74/p8 mouse whole blood assay, flow cytometry format. Conditions: Balb/c mouse whole blood, 5 h, CD74 signal on gated live B cells. The method, then:
CD74/p8 Mouse Whole Blood Assay: Flow Cytometry Format
Mouse whole blood Balb/c mice (sodium citrate) was ordered by Bioreclamation LLC; USA. The blood was used the next day upon receipt (stored at 4° C.). 100 μL blood were transferred in 96 well format plate, where compounds, an 11 point dilutions down from 30 μM, to be tested were previously deposited. The plate was incubated for 5 h in the incubator at 37° C., 5% CO2 under continuous motion. After the incubation the blood was diluted with RBC Lysis Buffer (Amined; Cat. Nr 3-13F00-H or BD; Cat. Nr 555899). The solution was mixed by pipetting and incubated 10 min in the 37° C. incubator. The white blood cells were sedimented for 3 min at 2000 rpm. After removing the supernatant the cell pellet was resuspended and washed twice in RCB Buffer and kept≈ 5 min at room temperature, followed by a centrifugation for 2 min at 2000 rpm. The cell pellet was then resuspend in D-PBS and centrifuged twice. Finally, the cells were taken up in of D-PBS/0.5% inactivated fetal bovine serum/2 mM EDTA. The cell suspension was treated with Live/Dead fixable stain (Life Technologies, >470 nm version), B cells were identified by surface staining with an anti-B220 antibody coupled to APC fluorofor. After staining, the cells were extensively washed with PBS. The cells were permeabilized and fixed in FACS lysing buffer; (BD; #349202, dil 1:10 in water) and labelled with an anti CD74, FITC labelled antibody, washed once more with diluted FACS lysing buffer and spin down. The cell pellet was washed with D-PBS/0.5% inactivated fetal bovine serum/2 mM EDTA and PBS prior to the analysis in a flow cytometer. The compound concentrations were plotted against the intensity (medium fluorescence intensity) of the CD74 signal on the gated life B cell and IC50 were determined by fitting data for a 11 concentrations dose response.
In general terms: Flow cytometry measures light scatter and fluorescence of single cells or particles in a stream.

As usually defined, the IC50 is the concentration at which inhibition is half-maximal. With `CC(C)NC(=O)c1ncc(NC(=O)C[C@@H](C)C(=O)N[C@@H]2C(=O)N3CCCN3Cc3ccccc32)s1` [Example 91, (R)-N^4-(2-(Isopropylcarba-moyl)thiazol-5-yl)-2-methyl-N^1-((S)-11-oxo-2,3,10,11-tetrahydro-1H,5H-benzo[d]pyrazolo [1,2-a][1,2]diazepin-10-yl)succinamide], the IC50 was 11 nM at human SPPL2a [1], 24 nM against human SPPL2a [2] and 500 nM on Sppl2a CD74.
With `Cc1nc(NC(=O)C(C)C)sc1C(=O)NC[C@H](C(=O)N[C@@H]1C(=O)N2CCCN2Cc2ccccc21)C(F)(F)F` [Example 3, 2-Isobutyramido-4-methyl-N-((R)-3,3,3-trifluoro-2-(((S)-11-oxo-2,3,10,11-tetrahydro-1H,5H-benzo[d]pyrazolo [1,2-a][1,2]diazepin-10-yl)carbamoyl)pro-pyl)thiazole-5-carboxamide], the IC50 at human SPPL2a [1] was 0.5 nM; against human SPPL2a [2], 3 nM; at Sppl2a CD74 it was 100 nM.
With `CNC(=O)c1nc(C)c(C(=O)NC[C@@H](C)C(=O)N[C@@H]2C(=O)N3CCCN3Cc3ccccc32)s1` [Example 1, N^2,4-dimethyl-N^5—((R)-2-methyl-3-oxo-3-(((S)-11-oxo-2,3,10,11-tetrahydro-1H,5H-benzo[d]pyrazolo[1,2-a][1,2]diazepin-10-yl)amino)propyl)thiazole-2,5-dicarboxamide], the concentration for half-maximal inhibition (IC50) against human SPPL2a [1] was found to be 24 nM; on human SPPL2a [2], 29 nM; on Sppl2a CD74 it was 358 nM.
The matching figures for `CC[C@H](CNC(=O)c1sc(C2=CCOCC2)nc1C)C(=O)N[C@@H]1C(=O)N2CCCN2Cc2ccccc21` [Example 26, 2-(3,6-Dihydro-2H-pyran-4-yl)-4-methyl-N-((R)-2-(((S)-11-oxo-2,3,10,11-tetrahydro-1H,5H-benzo[d]pyrazolo [1,2-a][1,2]diazepin-10-yl)carbamoyl)butyl) thiazole-5-carboxamide]: 25 nM, 101 nM and 2230 nM.
The matching figures for `C[C@H](CNC(=O)c1sc(C2CC2)nc1Cl)C(=O)N[C@@H]1C(=O)N2CCCN2Cc2ccccc21` [Example 43, 4-Chloro-2-cyclopropyl-N-((R)-2-methyl-3-oxo-3-(((S)-11-oxo-2,3,10,11-tetrahydro-1H,5H-benzo[d]pyrazolo [1,2-a][1,2]diazepin-10-yl)amino)propyl) thiazole-5-carboxamide]: 63 nM, 104 nM and 1740 nM.
The matching figures for `Cc1nc(C(=O)NCC(F)F)sc1C(=O)NC[C@H](C(=O)N[C@@H]1C(=O)N2CCCN2Cc2ccccc21)C(F)(F)F` [Example 5, N^2-(2,2-Difluoroethyl)-4-methyl-N^5-((R)-3,3,3-trifluoro-2-(((S)-11-oxo-2,3,10,11-tetrahydro-1H,5H-benzo[d]pyrazolo [1,2-a][1,2]diazepin-10-yl)carbamoyl)pro-pyl)thiazole-2,5-dicarboxamide]: 2 nM, 2 nM and 225 nM.
In the case of `CNC(=O)c1nc(C)c(C(=O)NC[C@H](C(=O)N[C@@H]2C(=O)N3CCCN3Cc3ccccc32)C(F)(F)F)s1` [Example 11, N^2,4-Dimethyl-N^5-((R)-3,3,3-trifluoro-2-(((S)-11-oxo-2,3,10,11-tetrahydro-1H,5H-benzo[d]pyrazolo [1,2-a][1,2]diazepin-10-yl)carbamoyl)pro-pyl)thiazole-2,5-dicarboxamide], the half-maximal inhibitory concentration (IC50) against human SPPL2a [1] worked out at 4 nM; against human SPPL2a [2], 3 nM; against Sppl2a CD74, 95 nM.
Taken in the same sequence, the figures for `CC[C@H](CNC(=O)c1sc(C(=O)NC(C)C)nc1C)C(=O)N[C@@H]1C(=O)N2CCCN2Cc2ccccc21` [Example 19, N^2-Isopropyl-4-methyl-N^5-((R)-2-(((S)-11-oxo-2,3,10,11-tetrahydro-1H,5H-benzo[d]pyrazolo [1,2-a][1,2]diazepin-10-yl)carbamoyl)butyl) thiazole-2,5-dicarboxamide] were 12 nM, 6 nM and 819 nM.
Taken in the same sequence, the figures for `CC[C@H](CNC(=O)c1sc(C(=O)NC)nc1C)C(=O)N[C@@H]1C(=O)N2CCCN2Cc2ccccc21` [Example 13, N^2,4-Dimethyl-N^5-((R)-2-(((S)-11-oxo-2,3,10,11-tetrahydro-1H,5H-benzo[d]pyrazolo [1,2-a][1,2]diazepin-10-yl)carbamoyl)butyl) thiazole-2,5-dicarboxamide] were 6 nM, 8 nM and 161 nM.
Take `CC[C@H](CNC(=O)c1c(C)noc1C(F)(F)F)C(=O)N[C@@H]1C(=O)N2CC3(CC3)CN2C(=O)c2ccccc21` [Example 31, N-((R)-2-(((S)-5,11-Dioxo-10,11-dihydro-1H,3H,5H-spiro[benzo[d]pyr-azolo[1,2-a][1,2]diazepine-2,1′-cyclopropan]-10-yl)carbamoyl)butyl)-3-methyl-5-(trifluoromethyl) isoxazole-4-carboxamide]: the 50% inhibitory concentration (IC50) came to 33 nM against human SPPL2a [1] and 22 nM on human SPPL2a [2].
Taken in the same sequence, the figures for `C[C@H](CC(=O)Nc1cc(-c2cncc(C(F)(F)F)c2)nn1C)C(=O)N[C@@H]1C(=O)N2CCCN2Cc2ccccc21` [Example 98, (R)-2-Methyl-N^4-(1-methyl-3-(5-(trifluoromethyl)pyridin-3-yl)-1H-pyrazol-5-yl)-N^1-((S)-11-oxo-2,3,10,11-tetrahydro-1H,5H-benzo[d]pyrazolo [1,2-a][1,2]diazepin-10-yl)succinamide] were 14 nM and 8 nM.
The matching figures for `Cc1ccn(C)c1C(=O)NC[C@@H](C)C(=O)N[C@@H]1C(=O)N2CCCN2Cc2ccccc21` [Example 60, 1,3-dimethyl-N-((R)-2-methyl-3-oxo-3-(((S)-11-oxo-2,3,10,11-tetrahydro-1H,5H-benzo[d]pyrazolo [1,2-a][1,2]diazepin-10-yl)amino)propyl)-1H-pyrrole-2-carboxamide]: 580 nM and 277 nM.
The matching figures for `CC[C@H](CNC(=O)c1sc(-c2ccc(OC(F)F)nc2)nc1Cl)C(=O)N[C@@H]1C(=O)N2CCCN2C(=O)c2ccccc21` [Example 37, 4-Chloro-2-(6-(difluoromethoxy)pyridin-3-yl)-N-((R)-2-(((S)-5,11-dioxo-2,3,10,11-tetrahydro-1H,5H-benzo[d]pyrazolo [1,2-a][1,2]diazepin-10-yl)carbamoyl)butyl) thiazole-5-carboxamide]: 53 nM and 32 nM.
